{
  "source": "patent US10947252B2",
  "about": "“Inhibitors of KEAP1-Nrf2 protein-protein interaction” (Janssen Pharmaceutica NV, priority 2018, dated 2021)",
  "data": [
    {"system": "Glo-Response ARE-luc2P HEK293 cell line", "test": "ARE luciferase reporter cell-based assay;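 also: luciferase signal tracks Nrf2 activation of the ARE once compounds disrupt KEAP1-Nrf2 binding, read with One-Glo reagent, DMSO serving as low control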", "conditions": "Homo sapiens, HEK293, 24 h, average of results obtained", "units": {"EC50": "nM"}, "values": [
      {"smiles": "CCn1nnc2c(C)c([C@H](CC(=O)O)c3ccc(C)c(CN4C[C@@H]5COCCN5c5ncccc5S4(=O)=O)c3)ccc21", "note": "(single isomer, unassigned) [Example 140, (*R)-3-(3-(((*R)-5,5-Dioxido-7a,8,10,11-tetrahydro-[1,4]oxazino[3,4-d]pyrido[2,3-f][1,2,5]thiadiazepin-6(7H)-yl)methyl)-4-methylphenyl)-3-(1-ethyl-4-methyl-1H-benzo[d][1,2,3]triazol-5-yl)propanoic Acid]", "EC50": 19},
      {"smiles": "CCn1nnc2c(C)c([C@@H](CC(=O)O)c3ccc(C)c(CN4C[C@@H]5CCCCN5c5ncccc5S4(=O)=O)c3)ccc21", "note": "(single isomer, unassigned) [Example 142, (*S)-3-(3-(((*S)-5,5-Dioxido-7,7a,8,9,10,11-hexahydro-6H-dipyrido[2,1-d:2′,3′-f][1,2,5]thiadiazepin-6-yl)methyl)-4-methylphenyl)-3-(1-ethyl-4-methyl-1H-benzo[d][1,2,3]triazol-5-yl)propanoic Acid]", "EC50": 1.1},
      {"smiles": "CCn1nnc2c(C)c([C@H](CC(=O)O)c3ccc(C)c(CN4C[C@@H]5CCCCN5c5ncccc5S4(=O)=O)c3)ccc21", "note": "(single isomer, unassigned) [Example 143, (*R)-3-(3-(((*S)-5,5-Dioxido-7,7a,8,9,10,11-hexahydro-6H-dipyrido[2,1-d:2′,3′-f][1,2,5]thiadiazepin-6-yl)methyl)-4-methylphenyl)-3-(1-ethyl-4-methyl-1H-benzo[d][1,2,3]triazol-5-yl)propanoic Acid]", "EC50": 45},
      {"smiles": "CCn1nnc2c(C)c([C@@H](CC(=O)O)c3ccc(C)c(CN4C[C@H]5CCCCN5c5ncccc5S4(=O)=O)c3)ccc21", "note": "(single isomer, unassigned) [Example 145, (*S)-3-(3-(((*R)-5,5-Dioxido-7,7a,8,9,10,11-hexahydro-6H-dipyrido[2,1-d:2′,3′-f][1,2,5]thiadiazepin-6-yl)methyl)-4-methylphenyl)-3-(1-ethyl-4-methyl-1H-benzo[d][1,2,3]triazol-5-yl)propanoic Acid]", "EC50": 1.1},
      {"smiles": "CCn1nnc2c(C)c([C@H](CC(=O)O)c3ccc(C)c(CN4C[C@H]5CCCCN5c5ncccc5S4(=O)=O)c3)ccc21", "note": "(single isomer, unassigned) [Example 146, (*R)-3-(3-(((*R)-5,5-Dioxido-7,7a,8,9,10,11-hexahydro-6H-dipyrido[2,1-d:2′,3′-f][1,2,5]thiadiazepin-6-yl)methyl)-4-methylphenyl)-3-(1-ethyl-4-methyl-1H-benzo[d][1,2,3]triazol-5-yl)propanoic Acid]", "EC50": 4.2},
      {"smiles": "CCn1nnc2c(C)c([C@@H](CC(=O)O)c3ccc(C)c(CN4C[C@H]5CCCN5c5ccccc5S4(=O)=O)c3)ccc21", "note": "(single isomer, unassigned) [Example 153, (*S)-3-(3-(((R)-5,5-Dioxido-7a,8,9,10-tetrahydrobenzo[f]pyrrolo[2,1-d][1,2,5]thiadiazepin-6(7H)-yl)methyl)-4-methylphenyl)-3-(1-ethyl-4-methyl-1H-benzo[d][1,2,3]triazol-5-yl)propanoic Acid]", "EC50": 3},
      {"smiles": "CCn1nnc2c(C)c([C@H](CC(=O)O)c3ccc(C)c(CN4C[C@H]5CCCN5c5ccccc5S4(=O)=O)c3)ccc21", "note": "(single isomer, unassigned) [Example 154, (*R)-3-(3-(((R)-5,5-Dioxido-7a,8,9,10-tetrahydrobenzo[f]pyrrolo[2,1-d][1,2,5]thiadiazepin-6(7H)-yl)methyl)-4-methylphenyl)-3-(1-ethyl-4-methyl-1H-benzo[d][1,2,3]triazol-5-yl)propanoic Acid]", "EC50": 59},
      {"smiles": "CCn1nnc2c(C)c([C@@H](CC(=O)O)c3ccc(C)c(CN4CC(C)(C)Oc5ccccc5S4(=O)=O)c3)ccc21", "note": "(single isomer, unassigned) [Example 158, (*S)-3-(3-((4,4-Dimethyl-1,1-dioxido-3,4-dihydro-2H-benzo[b][1,4,5]oxathiazepin-2-yl)methyl)-4-methylphenyl)-3-(1-ethyl-4-methyl-1H-benzo[d][1,2,3]triazol-5-yl)propanoic Acid]", "EC50": 6.2},
      {"smiles": "CCn1nnc2c(C)c([C@H](CC(=O)O)c3ccc(C)c(CN4CC(C)(C)Oc5ccccc5S4(=O)=O)c3)ccc21", "note": "(single isomer, unassigned) [Example 159, (*R)-3-(3-((4,4-Dimethyl-1,1-dioxido-3,4-dihydro-2H-benzo[b][1,4,5]oxathiazepin-2-yl)methyl)-4-methylphenyl)-3-(1-ethyl-4-methyl-1H-benzo[d][1,2,3]triazol-5-yl)propanoic Acid]", "EC50": 34},
      {"smiles": "Cc1ccc([C@H](CC(=O)O)c2ccc3c(nnn3C3CC3)c2C)cc1CN1CC2(CC2)N(C)c2ncccc2S1(=O)=O", "note": "(single isomer, unassigned) [Example 225, (*S)-3-(1-Cyclopropyl-4-methyl-1H-benzo[d][1,2,3]triazol-5-yl)-3-(4-methyl-3-((5′-methyl-1′,1′-dioxido-5′H-spiro[cyclopropane-1,4′-pyrido[2,3-f][1,2,5]thiadiazepin]-2′(3′H)-yl)methyl)phenyl)propanoic Acid]", "EC50": 5},
      {"smiles": "Cc1ccc([C@@H](CC(=O)O)c2ccn3c(C(F)(F)F)nnc3c2C)cc1CN1C[C@H]2COCCN2c2ncccc2S1(=O)=O", "note": "(single isomer, unassigned) [Example 263, (*R)-3-(3-(((*S)-5,5-Dioxido-7a,8,10,11-tetrahydro-[1,4]oxazino[3,4-d]pyrido[2,3-f][1,2,5]thiadiazepin-6(7H)-yl)methyl)-4-methylphenyl)-3-(8-methyl-3-(trifluoromethyl)-[1,2,4]triazolo[4,3-a]pyridin-7-yl)propanoic Acid]", "EC50": 1160},
      {"smiles": "Cc1ccc([C@@H](c2ccn3c(C(F)(F)F)nnc3c2C)C(C)(C)C(=O)O)cc1CN1CC2(CCNCC2)Oc2ncccc2S1(=O)=O", "note": "(single isomer, unassigned) [Example 336, (*S)-3-(3-((1′,1′-Dioxidospiro[piperidine-4,4′-pyrido[2,3-b][1,4,5]oxathiazepin]-2′(3′H)-yl)methyl)-4-methylphenyl)-2,2-dimethyl-3-(8-methyl-3-(trifluoromethyl)-[1,2,4]triazolo[4,3-a]pyridin-7-yl)propanoic Acid]", "EC50": 1830},
      {"smiles": "Cc1ccc([C@H](c2ccn3c(C(F)(F)F)nnc3c2C)C(C)(C)C(=O)O)cc1CN1CC2(CCOCC2)Oc2nc(CCC(=O)NCCOCCN)ccc2S1(=O)=O", "note": "(single isomer, unassigned) [Example 344, (*R)-3-(3-((7′-(3-((2-(2-Aminoethoxy)ethyl)amino)-3-oxopropyl)-1′,1′-dioxido-2,3,5,6-tetrahydrospiro[pyran-4,4′-pyrido[2,3-b][1,4,5]oxathiazepin]-2′(3′H)-yl)methyl)-4-methylphenyl)-2,2-dimethyl-3-(8-methyl-3-(trifluoromethyl)-[1,2,4]triazolo[4,3-a]pyridin-7-yl)propanoic Acid]", "EC50": 4930},
      {"smiles": "Cc1cc2cc([C@@H](c3ccc(C)c(CN4CC5(CCOCC5)Oc5nc(OCCN6CCCC6)c(C)cc5S4(=O)=O)c3)C(C)(C)C(=O)O)n(C)c2nn1", "note": "(single isomer, unassigned) [Example 346, (*S)-3-(3,7-Dimethyl-7H-pyrrolo[2,3-c]pyridazin-6-yl)-2,2-dimethyl-3-(4-methyl-3-((8′-methyl-1′,1′-dioxido-7′-(2-(pyrrolidin-1-yl)ethoxy)-2,3,5,6-tetrahydrospiro[pyran-4,4′-pyrido[2,3-b][1,4,5]oxathiazepin]-2′(3′H)-yl)methyl)phenyl)propanoic Acid]", "EC50": 49.8},
      {"smiles": "Cc1cc2cc([C@H](c3ccc(C)c(CN4CC5(CCOCC5)Oc5nc(OCCN6CCCC6)c(C)cc5S4(=O)=O)c3)C(C)(C)C(=O)O)n(C)c2nn1", "note": "(single isomer, unassigned) [Example 347, (*R)-3-(3,7-Dimethyl-7H-pyrrolo[2,3-c]pyridazine-6-yl)-2,2-dimethyl-3-(4-methyl-3-((8′-methyl-1′,1′-dioxido-7′-(2-(pyrrolidine-1-yl)-ethoxy)2,3,5,6-tetrahydrospiro[pyran-4,4′-pyrido[2,3-b][1,4,5]oxathiazepin]-2′,(3′H)-yl)methyl)phenyl)propanoic Acid]", "EC50": 3580},
      {"smiles": "Cc1cc2cc([C@@H](c3ccc(C)c(CN4CC5(CCOCC5)Oc5nc(OCCN6CCCCC6)c(C)cc5S4(=O)=O)c3)C(C)(C)C(=O)O)n(C)c2nn1", "note": "(single isomer, unassigned) [Example 348, (*S)-3-(3,7-Dimethyl-7H-pyrrolo[2,3-c]pyridazine-6-yl)-2,2-dimethyl-3-(4-methyl-3-((8′-methyl-1′,1′-dioxido-7′-(2-(piperidine-1-yl)-ethoxy)2,3,5,6-tetrahydrospiro[pyran-4,4′-pyrido[2,3-b][1,4,5]oxathiazepin]-2′,(3′H)-yl)methyl)phenyl)propanoic Acid]", "EC50": 19.2},
      {"smiles": "Cc1cc2cc([C@H](c3ccc(C)c(CN4CC5(CCOCC5)Oc5nc(OCCN6CCCCC6)c(C)cc5S4(=O)=O)c3)C(C)(C)C(=O)O)n(C)c2nn1", "note": "(single isomer, unassigned) [Example 349, (*R)-3-(3,7-Dimethyl-7H-pyrrolo[2,3-c]pyridazine-6-yl)-2,2-dimethyl-3-(4-methyl-3-((8′-methyl-1′,1′-dioxido-7′-(2-(piperidine-1-yl)-ethoxy)2,3,5,6-tetrahydrospiro[pyran-4,4′-pyrido[2,3-b][1,4,5]oxathiazepin]-2′,(3′H)-yl)methyl)phenyl)propanoic Acid]", "EC50": 1540},
      {"smiles": "Cc1cc2cc([C@@H](c3ccc(C)c(CN4CC5(CC5)Oc5nc(OCCN6CCCCC6)c(C)cc5S4(=O)=O)c3)C(C)(C)C(=O)O)n(C)c2nn1", "note": "(single isomer, unassigned) [Example 350, (*S)-3-(3,7-Dimethyl-7H-pyrrolo[2,3-c]pyridazine-6-yl)-2,2-dimethyl-3-(4-methyl-3-((8′-methyl-1′,1′-dioxido-7′-(2-(piperidine-1-yl)-ethoxy)spiro[cyclopropane-1,4′-pyrido[2,3-b][1,4,5]oxathiazepin]-2′,(3′H)-yl)methyl)phenyl)propanoic Acid]", "EC50": 23.4}
    ]}
  ]
}
